# How the values were obtained:
# [1] = Toxicity in po dosed mouse assessed as lethal dose; assay type: organism-based; conditions: in vivo
# [2] = system: Mus musculus; experiment: Anti-obesity activity in male C57BL/6 mouse model of high-fat diet induced obesity assessed as body weight change at 3 mg/kg, po administered once a day for 8 weeks relative to control; assay type: functional
# [3] = system: Mus musculus; experiment: Anti-obesity activity in male C57BL/6 mouse model of high-fat diet induced obesity assessed as body weight change at 0.1 mg/kg, ip administered once a day for 3 weeks relative to control; assay type: functional
# [4] = system: Mus musculus; experiment: Anti-obesity activity in male C57BL/6 mouse model of high-fat diet induced obesity assessed as body weight change at 10 mg/kg, po administered once a day for 3 weeks relative to control; assay type: functional
# [5] = system: Mus musculus; experiment: Anti-obesity activity in male C57BL/6 mouse model of high-fat diet induced obesity assessed as body weight change at 50 mg/kg, po administered once a day for 6 weeks relative to control; assay type: functional
# [6] = system: Mus musculus; experiment: Anti-obesity activity in male C57BL/6 mouse model of high-fat diet induced obesity assessed as body weight change at 15 mg/kg, ip administered once a day for 8 weeks relative to control; assay type: functional
# [7] = system: Mus musculus; experiment: Anti-obesity activity in male C57BL/6 mouse model of high-fat diet induced obesity assessed as body weight change at 1 mg/kg, po administered once a week for 7 weeks relative to control; assay type: functional
# [8] = system: Mus musculus; experiment: Anti-obesity activity in male C57BL/6 mouse model of high-fat diet induced obesity assessed as body weight change at 30 mg/kg, po administered once a day for 10 weeks relative to control; assay type: functional
# [9] = system: Mus musculus; experiment: Anti-obesity activity in high-fat diet induced C57BL/6 obese mouse model assessed as body weight change at 30 mg/kg, po administered once daily for 10 weeks relative to control; assay type: functional
# [10] = system: Mus musculus; experiment: Anti-obesity activity in male C57BL/6 mouse model of high-fat diet induced obesity assessed as body weight change at 25 mg/kg, ip administered once a day for 13 weeks relative to control; assay type: functional
# [11] = target: T1, Pancreatic triacylglycerol lipase (Sus scrofa, UniProt P00591); experiment: Inhibition of porcine pancreatic lipase using trioleate as substrate assessed as inhibition of substrate hydrolysis measured for 10 mins
# T1 sequence (P00591 whole entry): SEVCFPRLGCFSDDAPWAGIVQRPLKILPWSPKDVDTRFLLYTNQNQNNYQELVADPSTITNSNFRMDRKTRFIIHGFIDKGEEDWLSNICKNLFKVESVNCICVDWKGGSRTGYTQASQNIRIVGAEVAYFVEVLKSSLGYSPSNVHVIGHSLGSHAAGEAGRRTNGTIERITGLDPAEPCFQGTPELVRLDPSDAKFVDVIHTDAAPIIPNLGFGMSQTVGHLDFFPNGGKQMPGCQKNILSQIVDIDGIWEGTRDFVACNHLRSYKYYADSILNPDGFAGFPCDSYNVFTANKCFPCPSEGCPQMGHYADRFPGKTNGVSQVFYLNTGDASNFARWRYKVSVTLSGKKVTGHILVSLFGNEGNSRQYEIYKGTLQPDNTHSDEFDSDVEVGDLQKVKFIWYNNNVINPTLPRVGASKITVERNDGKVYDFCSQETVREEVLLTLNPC
# [12] = target: BDNF/NT-3 growth factors receptor (Homo sapiens, UniProt Q16620); experiment: Binding affinity to recombinant human TrkB receptor ECD assessed as dissociation constant
# Chain of BDNF/NT-3 growth factors receptor (Q16620 whole entry, the tested form may be a part): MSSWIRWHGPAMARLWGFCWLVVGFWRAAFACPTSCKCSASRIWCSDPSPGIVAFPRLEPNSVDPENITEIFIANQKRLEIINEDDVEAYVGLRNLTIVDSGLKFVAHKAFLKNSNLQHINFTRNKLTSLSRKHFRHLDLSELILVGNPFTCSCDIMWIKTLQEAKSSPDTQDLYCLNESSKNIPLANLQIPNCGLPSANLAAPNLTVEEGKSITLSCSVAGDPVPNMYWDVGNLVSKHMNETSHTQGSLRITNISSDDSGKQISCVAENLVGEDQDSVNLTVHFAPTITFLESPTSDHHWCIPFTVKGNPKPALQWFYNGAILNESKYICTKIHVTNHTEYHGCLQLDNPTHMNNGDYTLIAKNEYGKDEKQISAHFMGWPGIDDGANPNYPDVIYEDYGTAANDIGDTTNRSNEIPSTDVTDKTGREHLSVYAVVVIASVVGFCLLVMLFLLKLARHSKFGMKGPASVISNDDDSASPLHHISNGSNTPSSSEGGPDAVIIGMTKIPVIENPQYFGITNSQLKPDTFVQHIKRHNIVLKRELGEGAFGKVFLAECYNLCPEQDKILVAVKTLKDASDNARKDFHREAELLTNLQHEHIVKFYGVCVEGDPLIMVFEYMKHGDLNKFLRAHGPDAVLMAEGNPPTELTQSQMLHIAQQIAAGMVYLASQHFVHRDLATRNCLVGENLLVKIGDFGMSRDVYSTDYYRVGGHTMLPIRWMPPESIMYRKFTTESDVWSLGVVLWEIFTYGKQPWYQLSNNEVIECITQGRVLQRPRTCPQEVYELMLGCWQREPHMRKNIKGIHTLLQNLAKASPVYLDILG
# [13] = system: Mus musculus; experiment: Anti-obesity activity in female C57BL/6 mouse model of high-fat diet induced obesity assessed as body weight change administered orally for 20 weeks relative to control; assay type: functional; conditions: route po
# [14] = system: Mus musculus; experiment: Anti-obesity activity in high-fat diet induced obesity model of C57BL/6J mouse assessed as body weight loss at 20 mg/kg/day, po administered once daily for 14 days relative to control; assay type: functional; conditions: time 14 day
# [15] = system: Mus musculus; experiment: Anti-obesity activity in high-fat diet induced obesity model of C57BL/6J mouse assessed as body weight loss at 40 mg/kg/day, ip administered once daily for 14 days relative to control; assay type: functional; conditions: time 14 day
# [16] = Acute toxicity in po dosed C57BL/6J mouse assessed as lethal dose; assay type: organism-based; conditions: in vivo
# [17] = system: Mus musculus; experiment: Anti-obesity activity in male C57BL/6 mouse model of high-fat diet induced obesity assessed as body weight change at 50 mg/kg, po administered once a day for 8 weeks relative to control; assay type: functional
# [18] = system: Mus musculus; experiment: Anti-obesity activity in male C57BL/6 mouse model of high-fat diet induced obesity assessed as body weight change at 0.002 mg/kg, ip administered once a day for 8 weeks relative to control; assay type: functional
# [19] = system: Mus musculus; experiment: Anti-obesity activity in male C57BL/6 mouse model of high-fat diet induced obesity assessed as body weight change at 1.25 mg/kg, ip administered once a day for 21 days relative to control; assay type: functional; conditions: time 21 day
# [20] = system: Mus musculus; experiment: Anti-obesity activity in male C57BL/6 mouse model of high-fat diet induced obesity assessed as body weight change at 20 mg/kg, po administered once a day for 8 weeks relative to control; assay type: functional
structure (smiles),measurement,setting,value
CC1=C(O)C(=O)C=C2C1=CC=C1[C@@]2(C)CC[C@@]2(C)[C@@H]3C[C@](C)(C(=O)O)CC[C@]3(C)CC[C@]12C [CELASTROL],LD50,[1],20.5 mg/kg
same,Activity,[2],1.8%
same,Activity,[3],-27.7%
same,Activity,[4],-45.4%
C[C@H](CC(=O)C[C@@H](C)[C@H]1C[C@H](O)[C@@]2(C)C3=C(C(=O)C[C@]12C)[C@@]1(C)CCC(=O)C(C)(C)[C@@H]1C[C@@H]3O)C(=O)O [GANODERIC ACID A],Activity,[5],17.4%
O=C(/C=C/c1ccc(O)c(O)c1)c1ccc(O)cc1O [BUTEIN],Activity,[6],42.9%
O=C1N[C@@H]2C(=C[C@H](O)[C@@H](O)[C@H]2O)c2cc3c(c(O)c21)OCO3 [NARCICLASINE],Activity,[7],23.6%
O=c1oc2cc(O)ccc2c2ccc(O)cc12,Activity,[8],30.8%
same,Activity,[9],42.7%
CC(C)(O)[C@@H]1CC[C@](C)([C@H]2[C@@H](O)C[C@@]3(C)[C@@H]4C[C@H](O[C@@H]5O[C@H](CO)[C@@H](O)[C@H](O)[C@H]5O)[C@H]5C(C)(C)[C@@H](O[C@@H]6OC[C@@H](O)[C@H](O)[C@H]6O)CC[C@@]56C[C@@]46CC[C@]23C)O1,Activity,[10],25.4%
CCCCC/C=C\C/C=C\C[C@@H](C[C@@H]1OC(=O)[C@H]1CCCCCC)OC(=O)[C@H](CC(C)C)NC=O,IC50,[11],140 nM
"O=c1cc(-c2ccccc2)oc2c(O)c(O)ccc12 [7,8-DIHYDROXYFLAVONE]",Kd,[12],10 nM
same,Activity,[13],72.2%
CC1(C)[C@@H](O)C(O)=C[C@]2(C)[C@H]3C(=O)C=C4[C@@H]5C[C@@](C)(C(=O)O)CC[C@]5(C)CC[C@@]4(C)[C@]3(C)CC[C@@H]12,Activity,[14],26%
same,Activity,[15],20%
same,LD50,[16],940 mg/kg
COc1cc(O)c(C(=O)[C@@H]2[C@H](CC=C(C)C)C(C)=CC[C@H]2c2ccccc2)c(O)c1 [PANDURATIN A],Activity,[17],15%
CC1=C(CO)C(=O)O[C@@H]([C@@H](C)[C@H]2CC[C@H]3[C@@H]4C[C@H]5O[C@]56[C@@H](O)C=CC(=O)[C@]6(C)[C@H]4CC[C@]23C)C1 [WITHAFERIN A],Activity,[18],30.5%
same,Activity,[19],0%
C=C1C(=O)O[C@@H]2C[C@@]3(C)CCCC(=C)[C@@H]3C[C@H]12 [ISOALANTOLACTONE],Activity,[20],44.1%
